Measurements reported in patent publication US20050261290A1, “Novel compounds of proline and morpholine derivatives” (priority 2004, published 2005).

Molecular target: human 11b-hsd-1 (Homo sapiens, UniProt P28845)
Experiment: Inhibition constant Ki of human 11b-hsd-1 (3H-cortisone to 3H-cortisol conversion, HPLC)
Format: biochemical
Conditions: for inhibition at 0.1 µM / % inh @ 0.1 μM: compound at 0.1 μM; for Ki: apparent Ki, human 11b-hsd-1, read-out: Ki app

Sequence of human 11b-hsd-1 (P28845 whole entry): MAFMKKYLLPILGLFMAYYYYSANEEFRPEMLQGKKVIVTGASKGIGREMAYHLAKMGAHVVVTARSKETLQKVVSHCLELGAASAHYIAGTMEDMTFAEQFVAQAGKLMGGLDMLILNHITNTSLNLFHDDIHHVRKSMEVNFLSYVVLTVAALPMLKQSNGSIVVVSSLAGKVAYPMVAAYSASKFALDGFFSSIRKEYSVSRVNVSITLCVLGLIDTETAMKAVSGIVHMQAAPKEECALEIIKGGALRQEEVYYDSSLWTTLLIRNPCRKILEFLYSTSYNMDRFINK

| Structure (SMILES) | inhibition at 0.1 µM | Ki | other results |
| --- | --- | --- | --- |
| CCN1CCC[C@@H]1C(=O)NC1CCCCC1 [Example 84] | 62% |  |  |
| CC(C)CN1CCC[C@@H]1C(=O)NC1CCCCC1 [Example 86] | 100% | < 1 nM |  |
| CC(C)(O)CN1CCC[C@@H]1C(=O)NC1CCCCC1 [Example 87, 1-(2-Hydroxy-2-methyl-propyl)-pyrrolidine-2-carboxylic acid cyclohexylamide] | 54% |  |  |
| COC(C)(C)CN1CCC[C@@H]1C(=O)NC1CCCCC1 [Example 88, 1-(2-Methoxy-2-methyl-propyl)-pyrrolidine-2-carboxylic acid cyclohexylamide] | 94% | 7 nM |  |
| CCCN1CCC[C@@H]1C(=O)NC1CC2CCC1C2 (some centres unmarked) [Example 92] |  |  | % inh @ 0.1 μM: 100% |
| CCCN1CCC[C@@H]1C(=O)NCC1CCCC1 [Example 94] | 86% | 11 nM |  |
| CCOCCN1CCC[C@@H]1C(=O)NC1CCCCC1 [Example 95] | 78% | 39 nM |  |
| CC(C)OCCN1CCC[C@@H]1C(=O)NC1CCCCC1 [Example 96] | 84% | 39 nM |  |
| O=C(NC1CCCCC1)[C@H]1CCCN1CC1CCCO1 (some centres unmarked) [Example 97] |  | 7 nM | % inh @ 0.1 μM (0.1 µM): 100% |
| O=C(NC1CCCCC1)[C@H]1CCCN1CC1CCCO1 (some centres unmarked) [Example 98] |  |  | % inh @ 0.1 μM (0.1 µM): 41% |
| O=C(NC1CCCCC1)[C@H]1CCCN1CC1CCOCC1 [Example 99] | 91% | 8 nM |  |
| CCCCN1CCC[C@@H]1C(=O)NC1CCCCC1 [Example 100] | 100% | 4 nM |  |
| O=C(NC1CCCCC1)[C@H]1CCCN1CC(F)(F)F [Example 101] | 100% | 5 nM |  |
| O=C(NC1CCCCC1)[C@H]1CCCN1CC1CC1 [Example 102] | 91% | 7 nM |  |
| O=C(NC1CCCCC1)[C@H]1CCCN1C1CCC1 [Example 103] | 83% | 14 nM |  |
| CCCN1CCC[C@@H]1C(=O)NC1(C)CCCCC1 [Example 104] | 100% | 6 nM |  |
| CCC(C)N1CCC[C@@H]1C(=O)NC1CCCCC1 (some centres unmarked) [Example 105] | 82% | 15 nM |  |

| Structure (SMILES) | inhibition at 0.1 µM | Ki | other results |
| --- | --- | --- | --- |
| CCCN1CCC[C@@H]1C(=O)NC1CCC(C)CC1 (some centres unmarked) [Example 106] | 100% | 2 nM |  |
| CC(C)CN1CCC[C@@H]1C(=O)NC12C3C4C1C1C2C3C41C (some centres unmarked) [Example 122] | 100% |  |  |
| CCCN1CCC[C@@H]1C(=O)NC12C3C4C1C1C2C3C41C (some centres unmarked) [Example 123] | 100% |  |  |
| O=C(NC1CCCCC1)[C@H]1CCCN1CCC(F)(F)F [Example 127] | 100% |  |  |
| CCN1[C@@H](C(=O)NC2CCCCC2)CCC1(C)C [Example 131] | 88% |  |  |
| CC(C)CN1CCC[C@@H]1C(=O)NC1CCC(F)(F)CC1 [Example 136] | 100% |  |  |
| CCCN1CCC[C@@H]1C(=O)NC1CCC(F)(F)CC1 [Example 137] | 87% |  |  |
| CC12C3C4C1C1C2C3C41NC(=O)[C@H]1CCCN1 (some centres unmarked) [Example 143] | 10% |  |  |
| CC(C)(C)OC(=O)N1CCN(CC2CCCC2)[C@@H](C(=O)NC23CC4CC(CC(C4)C2)C3)C1 [Example 161] | 8.7% |  |  |
| CC(C)(C)OC(=O)N1CCCC(C(=O)Nc2ccc3ncccc3n2)C1 (centres unmarked) [Example 164] | 11% |  |  |
| CN(C(=O)C1COCCN1Cc1ccccc1)C1CCCCC1 (centres unmarked) [Example 177] | 92.2% | 18 nM |  |
| O=C(NC12CC3CC(CC(C3)C1)C2)C1COCCN1Cc1ccccc1 (centres unmarked) [Example 178] | 100% | 1 nM |  |
| N#Cc1cccc(CN2CCOCC2C(=O)NC23CC4CC(CC(C4)C2)C3)c1 (centres unmarked) [Example 179] | 100% | 2 nM |  |
| CN(C(=O)C1COCCN1CC1CCCCC1)C1CCCCC1 (centres unmarked) [Example 180] | 72.1% | 32 nM |  |
| O=C(NC12CC3CC(CC(C3)C1)C2)C1COCCN1CC1CCCCC1 (centres unmarked) [Example 181] | 100% | 1.8 nM |  |
| O=C(NC12CC3CC(CC(C3)C1)C2)C1COCCN1CC1CCCC1 (centres unmarked) [Example 183] | 100% | 2.1 nM |  |

Second part, led by results:

| inhibition at 0.1 µM | Ki | Structure (SMILES) | other results |
| --- | --- | --- | --- |
| 74% |  | O=C(NC1C2CC3CC(C2)CC1C3)[C@H]1COCCN1CCN1CCCC1 (some centres unmarked) [Example 70] |  |
| 83% |  | CC(C)N1CCC(CN2CCOC[C@@H]2C(=O)NC2C3CC4CC(C3)CC2C4)CC1 (some centres unmarked) [Example 73] |  |
| 90% |  | CC(C)CN1CCC(CN2CCOC[C@@H]2C(=O)NC2C3CC4CC(C3)CC2C4)CC1 (some centres unmarked) [Example 74] |  |
| 91% |  | CCN1CCC(CN2CCOC[C@@H]2C(=O)NC2C3CC4CC(C3)CC2C4)CC1 (some centres unmarked) [Example 75] |  |
| 14% |  | CC(C)N1CCC(CN2C[C@H](O)C[C@@H]2C(=O)NC2C3CC4CC(C3)CC2C4)CC1 (some centres unmarked) [Example 76] |  |
| 94% | 9 nM | CCCN1CCC[C@@H]1C(=O)NC1CCCCC1 [Example 85] |  |
| 92% |  | CCCN1CCC[C@@H]1C(=O)N[C@@H]1C[C@H]2CC[C@@H]1C2 [Example 89] |  |
| 100% |  | CCCN1CCC[C@@H]1C(=O)N[C@H]1C[C@@H]2CC[C@H]1C2 [Example 90] |  |
| 100% |  | CCCN1CCC[C@@H]1C(=O)NC1CC2CCC1C2 (some centres unmarked) [Example 91] |  |
| 100% | 2 nM | CCCN1CCC[C@@H]1C(=O)NC1CCCCCC1 [Example 93] |  |
| 100% | 2 nM | CN(C)CCN1CCC[C@@H]1C(=O)NC1C2CC3CC(C2)CC1C3 (some centres unmarked) [Example 107] |  |
| 100% | 9 nM | CN(C)CCCN1CCC[C@@H]1C(=O)NC1C2CC3CC(C2)CC1C3 (some centres unmarked) [Example 108] |  |
| 77% |  | CCN(CC)CCN1CCC[C@@H]1C(=O)NC1C2CC3CC(C2)CC1C3 (some centres unmarked) [Example 109] |  |
| 100% |  | CN(CCN1CCC[C@@H]1C(=O)NC1C2CC3CC(C2)CC1C3)Cc1ccccc1 (some centres unmarked) [Example 110, 1-[2-(Benzyl-methyl-amino)ethyl]-pyrrolidine-2-carboxylic acid adamantan-2-ylamide] |  |
| 96% |  | CNCCN1CCC[C@@H]1C(=O)NC1C2CC3CC(C2)CC1C3 (some centres unmarked) [Example 111] |  |
| 81% |  | CC(C)(C)OC(=O)N1CCC[C@H]1CN1CCC[C@@H]1C(=O)NC1C2CC3CC(C2)CC1C3 (some centres unmarked) [Example 112] |  |
| 100% |  | CC(C)(C)OC(=O)N1CCC[C@@H]1CN1CCC[C@@H]1C(=O)NC1C2CC3CC(C2)CC1C3 (some centres unmarked) [Example 113] |  |
| 100% |  | CC(C)(C)OC(=O)N1CCC(CN2CCC[C@@H]2C(=O)NC2C3CC4CC(C3)CC2C4)C1 (some centres unmarked) [Example 114] |  |
| 100% |  | O=C(NC1C2CC3CC(C2)CC1C3)[C@H]1CCCN1CC1CCOC1 (some centres unmarked) [Example 115] |  |
| 100% |  | C[C@H](O)CN1CCC[C@@H]1C(=O)NC1C2CC3CC(C2)CC1C3 (some centres unmarked) [Example 117] |  |
| 100% |  | C[C@@H](O)CN1CCC[C@@H]1C(=O)NC1C2CC3CC(C2)CC1C3 (some centres unmarked) [Example 118] |  |

| inhibition at 0.1 µM | Ki | Structure (SMILES) | other results |
| --- | --- | --- | --- |
| 100% |  | COC(C)(C)CN1CCC[C@@H]1C(=O)NC1C2CC3CC(C2)CC1C3 (some centres unmarked) [Example 120] |  |
| 17% |  | O=C(NC1C2CC3CC(C2)CC1C3)[C@H]1CCCNC1 (some centres unmarked) [Example 121, Piperidine-3-carboxylic acid adamantan-2-ylamide] |  |
| 100% |  | CCN1CCC[C@H](C(=O)NC2C3CC4CC(C3)CC2C4)C1 (some centres unmarked) [Example 124] |  |
| 81% |  | CCCN1CCC[C@H](C(=O)NC2C3CC4CC(C3)CC2C4)C1 (some centres unmarked) [Example 125] |  |
| 71% |  | O=C(NC1C2CC3CC(C2)CC1C3)[C@H]1CCCN1Cc1ccn[nH]1 (some centres unmarked) [Example 126] |  |
| 100% |  | O=C(NC1C2CC3CC(C2)CC1C3)[C@H]1CCCN1CCN1CCOCC1 (some centres unmarked) [Example 128] |  |
| 72% |  | CC(=O)NCCN1CCC[C@@H]1C(=O)NC1C2CC3CC(C2)CC1C3 (some centres unmarked) [Example 129, 1-(2-Acetylamino-ethyl)pyrrolidine-2-carboxylic acid adamantan-2-ylamide] |  |
| 56% |  | CS(=O)(=O)NCCN1CCC[C@@H]1C(=O)NC1C2CC3CC(C2)CC1C3 (some centres unmarked) [Example 130, 1-(2-Methanesulfonylamino-ethyl)pyrrolidine-2-carboxylic acid adamantan-2-ylamide] |  |
| 92% |  | O=C(NC1C2CC3CC(C2)CC1C3)[C@H]1CCCN1CCN1CCCC1 (some centres unmarked) [Example 132] |  |
| 96% |  | CS(=O)(=O)N1CCC[C@@H]1CN1CCC[C@@H]1C(=O)NC1C2CC3CC(C2)CC1C3 (some centres unmarked) [Example 134] |  |
| 100% |  | CS(=O)(=O)N1CCC[C@H]1CN1CCC[C@@H]1C(=O)NC1C2CC3CC(C2)CC1C3 (some centres unmarked) [Example 135] |  |
| 100% |  | O=C(NC1C2CC3CC(C2)CC1C3)[C@H]1CCCN1C[C@H]1CCCN1 (some centres unmarked) [Example 138] |  |
| 100% |  | CC(=O)N1CCC(CN2CCC[C@@H]2C(=O)NC2C3CC4CC(C3)CC2C4)CC1 (some centres unmarked) [Example 139] |  |
| 100% |  | CS(=O)(=O)N1CCC(CN2CCC[C@@H]2C(=O)NC2C3CC4CC(C3)CC2C4)CC1 (some centres unmarked) [Example 140] |  |
| 76% |  | O=C(NC1C2CC3CC(C2)CC1C3)[C@H]1CCCN1C[C@@H]1CCCN1 (some centres unmarked) [Example 141] |  |
| 100% |  | O=C(NC1C2CC3CC(C2)CC1C3)[C@H]1CCCN1CC1CCNC1 (some centres unmarked) [Example 142] |  |
| 87% |  | O=C(NC1C2CC3CC(C2)CC1C3)[C@H]1CCCN1CC1CCNCC1 (some centres unmarked) [Example 144] |  |
| 96% |  | C[C@@H](CN1CCC[C@@H]1C(=O)NC1C2CC3CC(C2)CC1C3)NC(=O)OC(C)(C)C (some centres unmarked) [Example 154] |  |
| 100% |  | N#Cc1ccc(CN2CCCC(C(=O)NC3C4CC5CC(C4)CC3C5)C2)cc1 (centres unmarked) [Example 163] |  |
| 100% |  | C[C@H](N)CN1CCC[C@@H]1C(=O)NC1C2CC3CC(C2)CC1C3 (some centres unmarked) [Example 176] |  |
